Experiment [1] relates to human neural stem cells (hNSCs). The experiment can be described thus: Neuronal differentiation of human neural stem cells (TUJ-1 staining). As to conditions: for EC50: agent alone, data as % of neuronal positive control, basal media subtracted; for EC50 / effect on neuronal differentiation (in words): hNSC; for effect on neuronal differentiation (in words): TUJ-1. In kind it is cell-based. An excerpt:
Mitogen-free test media with a positive control was used for neuronal differentiation, and basal media without growth factors served as a negative control.
Mitogen-free test media with a positive control for neuronal differentiation was used, and basal media without growth factors served as a negative control.
(§1) Human neural stem cells (hNSCs) were isolated and grown in monolayer culture, plated, treated with varying concentrations of buspirone in the presence or absence of the melatonin agonist melatonin, and stained with TUJ-1 antibody for the detection of neuronal differentiation or GFAP antibody for the detection of astrocyte differentiation, as described above. Mitogen-free test media with a positive control for neuronal differentiation was used along with basal media without growth factors as a negative control.
Human neural stem cells (hNSCs) were isolated and grown in monolayer culture, plated, treated with varying concentrations of a 5-HT3 antagonist and stained with TUJ-1 antibody, as described above. Mitogen-free test media with a positive control for neuronal differentiation was used along with basal media without growth factors as a negative control.
Human neural stem cells (hNSCs) were isolated and grown in monolayer culture, plated, treated with varying concentrations of a 5-HT4 agonist and stained with TUJ-1 antibody, as described above. Mitogen-free test media with a positive control for neuronal differentiation was used along with basal media without growth factors as a negative control.
The presence of synergy was determined by use of a combination index (CI). […] The CI is a quantitative measure of the nature of drug interactions, comparing the EC50's of two compounds, when each is assayed alone, to the EC50 of each compound when assayed in combination. The combination index (CI) is equal to the following formula: […]
where C1 and C2 are the concentrations of a first and a second compound, respectively, resulting in 50% activity in neuronal differentiation when assayed in combination; and IC1 and IC2 are the concentrations of each compound resulting in 50% activity when assayed independently.

The target in a further experiment is human mGlu3 (Homo sapiens, UniProt Q14832). The following applies: in vitro; low nanomolar range; read-out: EC50 against human mGlu3 receptors; cited from earlier work.
The next experiment deals with human mGlu2 (Homo sapiens, UniProt Q14416). The following applies: in vitro; low nanomolar range; read-out: EC50 against human mGlu2 receptors; cited from earlier work.
In experiment [2] the test system is Male F344 rats. Description: Novelty suppressed feeding (NSF) depression assay. In kind it is in vivo, rat. The following applies: 1x per day for 21 days. The method, then:
Twenty-four hours prior to behavioral testing, all food is removed from the home cage. At the time of testing a single pellet is placed in the center of a novel arena. Animals are placed in the corner of the arena and latency to eat the pellet is recorded. […] Animals receive compound daily for 21 days and testing is performed on day 21. A decreased latency to eat the food pellet is indicative of both neurogenesis and antidepressant activity.
Twenty-four hours prior to behavioral testing, all food is removed from the home cage. At the time of testing a single pellet is placed in the center of a novel arena. Animals are placed in the corner of the arena and the latency (in time) to eat the pellet is recorded. […] Animals receive compound daily for 21 days and testing is performed on day 21. A decreased latency to eat the food pellet is indicative of both neurogenesis and antidepressant activity.

The subject of experiment [3] is Male F344 rats. Description: Novel Object Recognition (NOR) cognition assay. The experiment is classed as in vivo, rat. As to conditions: fluoxetine 5 and 10 mg/kg p.o., 1x per day for 28 days. An excerpt:
The apparatus consisted of an open field (45×45×50 cm high) made of polycarbonate. Triplicate copies were used of the objects to be discriminated. Care was taken to ensure that the pair of objects tested were made from the same material so that they could not be distinguished readily by olfactory cues although they had very different appearances.
Each test session consisted of two phases. In the initial familiarization phase, two identical objects (A1 and A2) were placed in the far corners of the box arena. A rat was then placed in the middle of the arena and allowed 15 minutes to explore both objects. Exploration of an object was defined as directing the nose to the object at a distance of less than 2 cm and/or touching it with the nose. After a delay of 48-hours the rat was re-introduced to the arena (“test phase”). The box now contained a third identical copy of the familiar object (A3) and a new object (B). These were placed in the same locations as the sample stimuli, whereby the position (left or right) of the novel object in the test phase was balanced between rats. For half the rats, object A was the sample and object B was the novel alternative. The test phase was 15 minutes in duration, with the first 30 seconds of object interaction used to determine preference scores. Any animal with less than 15 seconds of object exploration were excluded from analysis.

The test system of experiment [4] is human neural stem cells (hNSCs). The experiment can be described thus: Astrocyte differentiation of hNSCs (GFAP staining). The experiment is classed as cell-based. The following applies: for effect on astrocyte differentiation (in words): GFAP; for EC50: Homo sapiens, Neural stem cell. The method, then:
Experiments were carried out as described in Example 1, except the positive control for astrocyte differentiation contained mitogen-free test media with a positive control, and cells were stained with GFAP antibody.
Experiments were carried out as described in Example 2, except the positive control for astrocyte differentiation contained mitogen-free test media with a different positive control.
as §1

The subject of experiment [5] is human neural stem cells (hNSC). Description: Immunohistochemistry with neuronal and astrocyte markers (TUJ-1, GFAP, Hoechst 33342). In kind it is cell-based. The following applies: incubated with 30 μM. The method, then: Immunohistochemistry was carried out as described above using TUJ-1 as a neuronal cell marker and GFAP as an astrocyte marker. The results are shown in FIG. […] Immunohistochemistry was carried out as described in Example 3.

The subject of experiment [6] is granule cell layer of the dentate gyrus. The experiment can be described thus: In vivo neurogenesis (BrdU positive cell counts). The arrangement: species or system rat. The following applies: 0.5 mg/kg buspirone, 3.0 mg/kg melatonin or both, i.p., 1x per day for 28 days. As to the method: BrdU was administered once daily between days 9 and 14 (100 mg/kg/day, i.p., n=12 per dose group). […] Data are presented as percent change in BrdU positive cells per cubic mm dentate gyrus.

Experiment [7] deals with KA, AMPA, and NMDA iGlu receptors. The following applies: cited from earlier work.
The mark [8] stands for this setting: agent alone, hNSC, % of astrocyte positive control, basal media subtracted.

Entries after “also recorded” stand apart in the source; their conditions may differ. Structures can show the parent of a compound that is named as a salt.

human mGlu3, sequence (Q14832 23-879): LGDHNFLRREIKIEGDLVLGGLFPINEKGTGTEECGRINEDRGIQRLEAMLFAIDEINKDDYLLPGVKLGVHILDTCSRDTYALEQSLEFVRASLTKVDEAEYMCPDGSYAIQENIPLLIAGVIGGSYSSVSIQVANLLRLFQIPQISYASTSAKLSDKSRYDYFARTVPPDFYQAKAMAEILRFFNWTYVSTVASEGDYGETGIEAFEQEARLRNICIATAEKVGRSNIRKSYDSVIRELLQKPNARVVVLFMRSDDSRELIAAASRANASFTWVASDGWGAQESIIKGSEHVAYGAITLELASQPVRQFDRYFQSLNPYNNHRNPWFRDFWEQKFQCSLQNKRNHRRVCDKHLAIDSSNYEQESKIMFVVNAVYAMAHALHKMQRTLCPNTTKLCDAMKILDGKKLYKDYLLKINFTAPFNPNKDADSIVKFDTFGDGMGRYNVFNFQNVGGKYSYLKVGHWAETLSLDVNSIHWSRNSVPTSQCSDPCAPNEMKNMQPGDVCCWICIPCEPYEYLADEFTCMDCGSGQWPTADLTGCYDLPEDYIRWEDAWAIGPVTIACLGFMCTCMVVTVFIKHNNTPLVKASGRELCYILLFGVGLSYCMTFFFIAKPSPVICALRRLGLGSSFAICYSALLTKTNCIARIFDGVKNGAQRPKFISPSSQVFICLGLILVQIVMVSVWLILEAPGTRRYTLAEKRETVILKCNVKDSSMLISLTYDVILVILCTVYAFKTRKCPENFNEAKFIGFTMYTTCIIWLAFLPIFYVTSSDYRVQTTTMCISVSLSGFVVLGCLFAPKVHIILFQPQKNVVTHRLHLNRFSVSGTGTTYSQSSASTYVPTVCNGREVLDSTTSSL
human mGlu2, sequence (Q14416 19-872): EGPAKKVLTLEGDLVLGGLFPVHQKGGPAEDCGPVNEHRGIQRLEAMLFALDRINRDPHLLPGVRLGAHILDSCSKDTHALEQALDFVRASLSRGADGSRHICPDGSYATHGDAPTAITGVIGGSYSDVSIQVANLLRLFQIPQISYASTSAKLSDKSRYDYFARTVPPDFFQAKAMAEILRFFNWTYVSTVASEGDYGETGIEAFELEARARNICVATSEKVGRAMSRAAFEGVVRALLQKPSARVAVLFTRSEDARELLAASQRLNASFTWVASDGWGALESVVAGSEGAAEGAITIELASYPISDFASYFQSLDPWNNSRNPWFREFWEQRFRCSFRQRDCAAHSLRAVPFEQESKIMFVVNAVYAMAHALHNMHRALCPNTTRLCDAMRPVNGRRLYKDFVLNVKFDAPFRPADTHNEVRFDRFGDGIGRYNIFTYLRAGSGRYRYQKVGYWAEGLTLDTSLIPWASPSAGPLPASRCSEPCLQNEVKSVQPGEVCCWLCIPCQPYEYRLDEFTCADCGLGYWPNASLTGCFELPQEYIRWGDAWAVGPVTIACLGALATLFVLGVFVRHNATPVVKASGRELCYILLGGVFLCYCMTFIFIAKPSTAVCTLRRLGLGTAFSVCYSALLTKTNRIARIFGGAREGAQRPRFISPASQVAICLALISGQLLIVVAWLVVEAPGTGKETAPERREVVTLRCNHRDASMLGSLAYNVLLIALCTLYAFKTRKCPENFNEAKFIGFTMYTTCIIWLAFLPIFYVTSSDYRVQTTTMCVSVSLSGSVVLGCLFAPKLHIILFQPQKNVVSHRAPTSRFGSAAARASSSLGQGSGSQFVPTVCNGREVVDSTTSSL

As a reminder, the EC50 is the midpoint of the concentration-response curve. Regarding `COC(=O)C(c1ccccc1)C1CCCCN1` (centres unmarked) [methylphenidate], in [1] (Homo sapiens, Neural stem cell), the EC50 is 2.2 µM.
Consider `CNS(=O)(=O)Cc1ccc2[nH]cc(CCN(C)C)c2c1` [sumatriptan], for which the 50% effective concentration (EC50) in [1] (Homo sapiens, Neural stem cell) turned out to be 14.9 µM. Moreover, in experiment [1], the “effect on neuronal differentiation (in words)” value is “promotes differentiation of neural stem cells into neurons”.
For the molecule `N[C@@]1(C(=O)O)CO[C@H]2[C@H](C(=O)O)[C@H]21` [LY379268, (−)-2-oxa-4-aminobicyclohexane-4,6-dicarboxylic acid], the EC50 at human mGlu3 and on human mGlu2 was under 10 nM throughout.
For the molecule `CNCCC(Oc1ccc(C(F)(F)F)cc1)c1ccccc1` (centres unmarked) [fluoxetine], in the experiment on Male F344 rats [2] (fluoxetine 10.0 mg/kg p.o.), the “latency to eat the food pellet” value is recorded as “reduced the latency to eat the food pellet”. The “preference for the novel object (visits, time spent)” value in the experiment on Male F344 rats [3] was “increased both the number of visits to, and the amount of time spent with, the novel object; also recorded: dose dependent increase in preference for the novel object”.
Take `O=C1CC[C@@]2(O)[C@H]3Cc4ccc(O)c5c4[C@@]2(CCN3CC2CC2)[C@H]1O5` [naltrexone]: the half-maximal effective concentration (EC50) in experiment [1] (Homo sapiens, Neural stem cell) was 0.39 µM.
In the case of `CN1C2CCCC1CC(NC(=O)c1nn(C)c3ccccc13)C2` (centres unmarked) [granisetron], in experiment [1], the “effect on neuronal differentiation (in words)” value is “promote differentiation of neural stem cells into neurons”.
In the case of `N[C@@H](Cc1c[nH]c2ccc(O)cc12)C(=O)O` [5-HTP, 5-hydroxytryptophan], the EC50 in [1] (Homo sapiens, Neural stem cell) amounted to 12 µM. For the same molecule, the “effect on neuronal differentiation (in words)” value in [1] is “weakly promoted neuronal differentiation”. The “EC50, astrocyte differentiation” value in experiment [4] (setting [8]) is “undeterminable”. Moreover, in [4] (hNSC), the “effect on astrocyte differentiation (in words)” value is reported as “no significant increase in astrocyte differentiation above basal media values”.
In the case of `COc1cc(N)c(Cl)cc1C(=O)NC1CCN(CCCOc2ccc(F)cc2)CC1OC` (centres unmarked) [cisapride], in [1] (Homo sapiens, Neural stem cell), the EC50 amounted to 7.9 µM. Also, in [1], the “effect on neuronal differentiation (in words)” value is recorded as “promote differentiation of neural stem cells into neurons”.
On to `NC(=O)C[S+]([O-])C(c1ccccc1)c1ccccc1` (centres unmarked) [modafinil], for which the EC50 in [1] (Homo sapiens, Neural stem cell) is 12.5 µM; in experiment [4] (agent alone, hNSC) it was over 31.6 µM.
For the molecule `NCCc1ccc(O)c(O)c1` [dopamine, 4-(2-aminoethyl)benzene-1,2-diol], the “neuronal differentiation, dopamine dose response” value in experiment [1] (dopamine alone or with 10 μM or 30 μM 5-HTP) is on record as “did not significantly enhance neuronal differentiation”.
`CC(C)C(=O)c1c(C(C)C)nn2ccccc12` [ibudilast]: the EC50 in experiment [1] (Homo sapiens, Neural stem cell) worked out at 0.72 µM.
For the molecule `CCOc1cc(N)c(Cl)cc1C(=O)NCC1CN(Cc2ccc(F)cc2)CCO1` (centres unmarked) [mosapride citrate], in experiment [5], the “lineage of hNSC monolayer in immunofluorescent image” value is “primarily of a neuronal lineage”. Further, the EC50 in experiment [1] (Homo sapiens, Neural stem cell) is about 15.8 µM; in experiment [1], 10.4 µM; in experiment [4] (setting [8]) it was over 31.6 µM. Moreover, the “effect on neuronal differentiation (in words)” value in experiment [1] (listed as Mosapride citrate) is recorded as “significantly promoted neuronal differentiation”; in [1] (listed as mosapride) it was “promote differentiation of neural stem cells into neurons”. The “effect on astrocyte differentiation (in words)” value in [4] (hNSC) is reported as “did not show a significant effect on astrocyte differentiation”.
Take `O=C1[C@@H]2[C@H]3CC[C@H](C3)[C@@H]2C(=O)N1CCCCN1CCN(c2ncccn2)CC1` [tandospirone]: the EC50 in experiment [1] (Homo sapiens, Neural stem cell) was found to be 12.1 µM; in [4] (setting [8]) it was 8.69 µM.
As to `CN1C(=O)COc2c(C(=O)NC3CN4CCC3CC4)cc(Cl)cc21` (centres unmarked) [azasetron], the “lineage of hNSC monolayer in immunofluorescent image” value in experiment [5] is given as “primarily of a neuronal lineage”. In addition, the results for the EC50 in experiment [1] and in experiment [4] (setting [8]) were 5.8 µM and over 31.6 µM, respectively. The “effect on neuronal differentiation (in words)” value in experiment [1] is listed as “promote differentiation of neural stem cells into neurons”; in experiment [1] (listed as Azasetron) it was “significantly promoted neuronal differentiation”. The “effect on astrocyte differentiation (in words)” value in experiment [4] (hNSC) is “did not show a significant effect on astrocyte differentiation”. Also, the maximum astrocyte differentiation in experiment [4] (percent of positive control, agent alone or in combination) came out at 33%.
Turning to `NC(=O)N1c2ccccc2C=Cc2ccccc21` [carbemazepine], the EC50 in experiment [1] (Homo sapiens, Neural stem cell) came to 15.7 µM.
Consider `NCC(CC(=O)O)c1ccc(Cl)cc1` (centres unmarked) [baclofen], for which the EC50 was 3.9 µM in experiment [1] (Homo sapiens, Neural stem cell) and over 31.6 µM in experiment [4] (setting [8]).
In the case of `Nc1nc2ncc(CNc3ccc(C(=O)N[C@@H](CCC(=O)O)C(=O)O)cc3)nc2c(=O)[nH]1` [folic acid], the EC50 in experiment [1] (Homo sapiens, Neural stem cell) was 4.5 µM.
Regarding `COc1ccc2[nH]cc(CCNC(C)=O)c2c1` [melatonin], the “BrdU positive cells per cubic mm dentate gyrus (percent change)” value in experiment [6] is “did not significantly change the number of BrdU positive cells”. Further, the EC50 was over 31.6 µM in [1] (Homo sapiens, Neural stem cell) and over 31.6 µM in experiment [4] (setting [8]). In the experiment on Male F344 rats [2] (0.5 mg/kg buspirone, 3.0 mg/kg melatonin or both, i.p.), the “latency to eat the food pellet (percent baseline)” value is “did not significantly reduce the latency to eat the food pellet”.
For `N[C@](CC1c2ccccc2Oc2ccccc21)(C(=O)O)[C@H]1C[C@@H]1C(=O)O` [LY341495, (2S)-2-amino-2-(1S,2S-2-carboxycycloprop-1-yl)-3-(xanth-9-yl) propanoic acid], in experiment [7], the “activity against KA, AMPA, and NMDA iGlu receptors” value was “substantially inactive”.
As for `C[C@H](CS)C(=O)N1CCC[C@H]1C(=O)O` [captopril], in experiment [1] (Homo sapiens, Neural stem cell), the EC50 is 5.4 µM.
As for `Cc1nccn1CC1CCc2c(c3ccccc3n2C)C1=O` (centres unmarked) [ondansetron], the EC50 in experiment [1] (Homo sapiens, Neural stem cell) stood at 23.9 µM. Moreover, in experiment [1], the “effect on neuronal differentiation (in words)” value was “promote differentiation of neural stem cells into neurons”.
On to `NCC1(CC(=O)O)CCCCC1` [gabapentin], for which the EC50 in experiment [1] (Homo sapiens, Neural stem cell) is 11.5 µM.
Consider `COc1ccc2cccc(CCNC(C)=O)c2c1` [agomelatine], for which the concentration for a half-maximal effect (EC50) in experiment [1] (Homo sapiens, Neural stem cell) turned out to be 8.7 µM. For the same molecule, in experiment [1], the “effect on neuronal differentiation (in words)” value is recorded as “promotes differentiation of neural stem cells into neurons”.
